# Like-named read-outs stand apart in the source and are kept apart here.
# Columns and labels:
# RSV strain A2 [1] = experiment: Virus yield reduction assay in HEp-2 cells; format: cell-based, Respiratory syncytial virus; details: compound added twice daily
# Method: EC50 & EC90 : concentration required to reduce virus (RSV strain
# Both compounds were added to the cells twice daily.
# RSV CH18537 (B) [2] = experiment: Neutral red uptake assay in HEp-2 cells, RSV strain CH18537; format: cell-based, Respiratory syncytial virus; details: Table 12, neutral red, once a day for two days
# Method: (§1) This assay was performed by a modified method as described by Cavenaugh et al. (Cavenaugh et al. 1990, Invest. New Drugs 8:347-354). Briefly, medium was removed from each well of a plate scored for CPE from a CPE inhibition assay, 0.2 ml of neutral red (0.034% in PSS) was added to each of the wells of that plate and the plate incubated for 2 hr at 37° C. in the dark. The neutral red solution was removed from the wells and the wells rinsed twice with PBS (pH 7.4). Equal volumes (0.1 ml) of absolute ethanol and Sorenson citrate buffer (0.1 M sodium citrate, 0.1 M HCI, pH 4.2) were mixed together and added to each well. Plates were incubated in the dark for 30 min. at room temperature to solubilize the dye. The plates were then gently mixed on a 96-well plate adapted vortexer for 1 min. Absorbances at 540 nm and 450 nm were read with a microplate reader (Bio-Tek EL 1309; Bio-Tek Instruments, Inc. Winooski, Vt.). Absorbance values were expressed as percents of untreated controls and EC50 and IC50 values were calculated by regression analysis.
# (§2) In this series, MP351 was added once a day for two days with fresh medium
# [3] = test system: RSV 393 (clinical isolate); experiment: CPE inhibition assay in HEp-2 cells, RSV 393; format: cell-based, Respiratory syncytial virus; details: Table 12, CPE, once a day for two days
# Method: (§3) The CPE inhibition assay used in this study was performed as described by Sidwell and Huffman (Sidwell et al., 1971, Appl. Microbiol. 22:7979-7801) with slight modifications. Varying concentrations of test compounds were added to each plate containing near confluent cell monolayers (1×10^5 cells/well) followed immediately by the addition of virus at a multiplicity of infection (MOI)=0.01, and then incubated at 37° C. On the following day, the medium from each plate was removed and fresh compound added. The assay was stopped at the end of the sixth day when the virus cytopathic effect in the virus infected, untreated control cells affected all cells. All compounds were assayed for virus inhibition in quadruplicate and for cytotoxicity in duplicate. For each compound, two wells were set aside as uninfected, untreated cell controls per test and four wells per test received virus only and represented controls for virus replication. […] For all CPE-based assays, the 50% effective concentration (EC50) was calculated by regression analysis using the means of the CPE ratings at each concentration of compound.
# as §2
# A2 strain RSV = experiment: CPE inhibition assay in MA-104 cells; format: cell-based, Respiratory syncytial virus
# Method: as §3
# EC50 Concentration for 50% inhibition of virus replication (microM)
# (§4) Determined in MA-104 cells, A2 strain RSV
# MA-104 cells = experiment: Cytotoxicity graded by morphological change in MA-104 cells; format: cell-based, African green monkey
# Method: (§5) Embryonic African green monkey kidney cells (MA-104) were obtained from BioWhittaker, Inc. (Walkersville, Md.). HEp-2 cells were propagated from a human epidermoid carcinoma of the larynx (American Type Culture Collection, ATCC; Rockville, Md.). The cells were grown in minimal essential medium. (MEM, Gibco-BRL, Gaitherburg, Md.) supplemented with 0.1% NaHCO3 and 10% fetal bovine serum (FBS, Hyclone Laboratories, Logan Utah.). When performing antiviral assays, serum was reduced to 2% and 50 μg/ml gentamicin (Sigma Chemical Company, St. Louis, Mo.) was added to the medium.
# (§6) Morphological changes due to compound cytotoxicity were graded on a scale of 0-5; grade 5 was defined as 100% cytotoxicity. The 50% cytotoxic dose (IC50 was calculated by regression analysis. A selective index (S.I.) was calculated for each compound [S.I.=(IC50)/(EC50 ].
# IC50 Conc. for 50% cytotoxicity grade by morphological change (microM)
# as §4
# Hep-2 Cells [4] = experiment: Neutral red uptake assay of cytotoxicity in HEp-2 cells; format: cell-based, human
# Method: as §5, §1
# [5] = test system: RSV 393 (clinical isolate); experiment: Neutral red uptake assay in HEp-2 cells, RSV 393; format: cell-based, Respiratory syncytial virus; details: Table 12, neutral red, once a day for two days
# Method: as §1, §2
# RSV Long (A) [6] = experiment: CPE inhibition assay in HEp-2 cells, RSV strain Long; format: cell-based, Respiratory syncytial virus; details: Table 12, CPE, once a day for two days
# Method: as §3, §2
# RSV Long (A) [7] = experiment: Neutral red uptake assay in HEp-2 cells, RSV strain Long; format: cell-based, Respiratory syncytial virus; details: Table 12, neutral red, once a day for two days
# Method: as §1, §2
# Hep-2 Cells [8] = experiment: Cytotoxicity by morphological changes in HEp-2 cells (CPE inhibition assay); format: cell-based, human
# Method: as §5, §6
# RSV strain A2 [9] = experiment: Neutral red uptake assay of CPE inhibition in HEp-2 cells; format: cell-based, Respiratory syncytial virus; details: read-out: EC50
# Method: as §1
# RSV CH18537 (B) [10] = experiment: CPE inhibition assay in HEp-2 cells, RSV strain CH18537; format: cell-based, Respiratory syncytial virus; details: Table 12, CPE, once a day for two days
# Method: as §3, §2
# RSV strain A2 [11] = experiment: CPE inhibition assay in HEp-2 cells; format: cell-based, Respiratory syncytial virus; details: Table 10, CPE; B.I.D. 3 days; HEp2; read-out: EC50
# Method: as §3, with “On the following day, the medium from each plate was removed and fresh compound added. The assay was stopped at the end of the sixth day when the virus cytopathic effect in the virus infected, untreated control cells affected all cells.” left out
# RSV M2 RNA = experiment: RT-PCR of M2 RNA from RSV-infected 9HTE cells; format: cell-based, Respiratory syncytial virus; details: RNA at 8 h post-infection, M.O.I.=10
# Method: To determine if RSV RNA levels correlated with antiviral activity, RT-PCR analysis was performed on RNA isolated from RSV-infected and uninfected 9HTE cells with and without treatment with spA4 -antiRSV3'3'T/(8281-8299) or spA4 -antiRSV3'3'A/(8530-8547). An M2 RNA sequence in RSV (from nucleotides 7879 to 8465) was converted to cDNA and amplified by PCR. M2 RNA from the RSV-infected cells produced an RT-PCR DNA product that was clearly visible. […] Levels of GAPDH transcripts were similar in all of these RNA preparations.
# RNA was collected from 2×10^5 9HTE cells at 8 h post-infection (M.O.I.=10) by RNAzol treatment as described by the manufacturer (Tel-Test, Inc, Freindswood, Tex.). RNA was isolated after 8 h to limit RSV replication to a single cycle. Isolated RNA (≈1 μg) was incubated with 100 pmoles of the appropriate downstream (-) primer listed below or 100 pmoles of random hexamer (used for glyceraldehyde-3-phosphatedehydrogenase, GAPDH, mRNA only). RNA and primers were heated to 70° C. for 10 min then cooled rapidly on ice for 5 min. […]
# 25 μl Hot-Start upper buffer contained 5 U Taq DNA polymerase (GibcoBRL) and 1/10th of the cDNA from the RT reaction. […] Aliquots of the RT/PCR mixtures were analyzed on 1% agarose/TBE gels.
# [12] = MA-104 cells, A2 strain RSV (Table 8), read-out: EC50 Concentration for 50% inhibition of virus replication
# [13] = MA-104 cells (Table 8), read-out: IC50 Conc. for 50% cytotoxicity grade by morphological change
# [14] = Table 11, neutral red, q.d. 3 days, HEp2
# [15] = Table 8, text says HEP-2 cells, read-out: EC50 (inhibition of RSV replication)
# [16] = Table 8, text says HEP-2 cells, read-out: IC50 (toxicity)
substance,measurement,setting,value
2-5A-L2-AsAsAsAATGGGGCAAAsTsAsA [MP351],EC50,RSV strain A2 [1]; virus yield reduced by 50%,320 nM
same,EC90,RSV strain A2 [1]; virus yield reduced by 90%,1000 nM
same,EC50,RSV CH18537 (B) [2],100 nM
same,EC50,[3],300 nM
same,EC50,"A2 strain RSV; MA104 cells, CPE assay, added once or once daily for 2 days, read-out: EC50",1000 nM
same,EC50,A2 strain RSV; [12],300 nM
same,IC50,MA-104 cells; [13],> 10000 nM
same,IC50,"Hep-2 Cells [4]; Table 11, neutral red, B.I.D. 2 days, HEp2",3200 nM
same,IC50,"Hep-2 Cells [4]; Table 11, neutral red, B.I.D. 3 days, HEp2",> 3200 nM
same,IC50,"Hep-2 Cells [4]; Table 11, neutral red, B.I.D. 4 days, HEp2",3200 nM
same,IC50,"Hep-2 Cells [4]; Table 11, neutral red, q.d. 1 day (added along with virus, never replenished), HEp2",> 3200 nM
same,IC50,Hep-2 Cells [4]; [14],2000 nM
same,IC50,"Hep-2 Cells [4]; Table 11, neutral red, q.d. 4 days, HEp2",> 3200 nM
same,IC50,"Hep-2 Cells [4]; Table 12, neutral red, test with 393 (clinical isolate), HEp-2",> 3200 nM
same,IC50,"Hep-2 Cells [4]; Table 12, neutral red, test with CH18537 (B), HEp-2",2400 nM
same,IC50,"Hep-2 Cells [4]; Table 12, neutral red, test with Long (A), HEp-2",2000 nM
same,IC50,"Hep-2 Cells [4]; Table 13, neutral red, q.d., Day 0, HEp-2",> 3200 nM
same,IC50,"Hep-2 Cells [4]; Table 13, neutral red, q.d., Day 1, HEp-2",> 3200 nM
same,IC50,"Hep-2 Cells [4]; Table 13, neutral red, q.d., Day 2, HEp-2",2200 nM
same,EC50,[5],1600 nM
same,EC50,RSV Long (A) [6],300 nM
same,EC50,RSV Long (A) [7],400 nM
same,IC50,"Hep-2 Cells [8]; Table 10, CPE, B.I.D. 2 days, HEp2",> 3200 nM
same,IC50,"Hep-2 Cells [8]; Table 10, CPE, B.I.D. 3 days, HEp2",> 3200 nM
same,IC50,"Hep-2 Cells [8]; Table 10, CPE, B.I.D. 4 days, HEp2",3200 nM
same,IC50,"Hep-2 Cells [8]; Table 10, CPE, q.d. 1 day (added along with virus, never replenished), HEp2",> 3200 nM
same,IC50,"Hep-2 Cells [8]; Table 10, CPE, q.d. 3 days, HEp2",> 3200 nM
same,IC50,"Hep-2 Cells [8]; Table 10, CPE, q.d. 4 days, HEp2",> 3200 nM
same,IC50,"Hep-2 Cells [8]; Table 12, CPE, test with 393 (clinical isolate), HEp-2",> 3200 nM
same,IC50,"Hep-2 Cells [8]; Table 12, CPE, test with CH18537 (B), HEp-2",> 3200 nM
same,IC50,"Hep-2 Cells [8]; Table 12, CPE, test with Long (A), HEp-2",> 3200 nM
same,IC50,"Hep-2 Cells [8]; Table 13, CPE, q.d., Day 0, HEp-2",> 3200 nM
same,IC50,"Hep-2 Cells [8]; Table 13, CPE, q.d., Day 1, HEp-2",> 3200 nM
same,IC50,"Hep-2 Cells [8]; Table 13, CPE, q.d., Day 2, HEp-2",2200 nM
same,EC50,RSV strain A2 [9]; [14],50 nM
same,EC50,"RSV strain A2 [9]; Table 13, neutral red, q.d., fresh compound up to Day 1 post infection, HEp-2",320 nM
same,EC50,RSV CH18537 (B) [10],100 nM
same,EC50,RSV strain A2 [11],40 nM
"AsAsAsAATGGGGCAAAsTsAsA (AAAAATGGGGCAAATAA; antisense; DNA, linkages s3 o10 s3 (s phosphorothioate, o phosphodiester), methylation of C not given here) [MP320, gapmer antisense oligonucleotide, three thiophosphorylated linkages at both termini]",EC50,A2 strain RSV; [12],10000 nM
same,IC50,MA-104 cells; [13],> 10000 nM
"AsAsAsAsAsTsGsGsGsGsCsAsAsAsTsAsA (AAAAATGGGGCAAATAA; antisense; DNA, all phosphorothioate, methylation of C not given here) [MP273]",EC50,A2 strain RSV; [12],3000 nM
same,EC50,A2 strain RSV; [15],3000 nM
same,IC50,MA-104 cells; [13],> 10000 nM
same,IC50,MA-104 cells; [16],> 10000 nM
"AsTsAsAsGsGsGsGsAsAsCsAsTsAsAsAsA (ATAAGGGGAACATAAAA; antisense; DNA, all phosphorothioate, methylation of C not given here) [MP317, control all PS oligonucleotide that still contained the G quartet motif but otherwise scrambled]",EC50,A2 strain RSV; [12],1000 nM
same,EC50,A2 strain RSV; [15],1000 nM
same,IC50,MA-104 cells; [13],5000 nM
same,IC50,MA-104 cells; [16],5000 nM
"GsAsAsGsAsCsAsGsAsAsTsAsAsGsAsTsA (GAAGACAGAATAAGATA; antisense; DNA, all phosphorothioate, methylation of C not given here) [MP318]",EC50,A2 strain RSV; [12],10000 nM
same,EC50,A2 strain RSV; [15],10000 nM
same,IC50,MA-104 cells; [13],8000 nM
same,IC50,MA-104 cells; [16],8000 nM
spA2'p(A2'p)3 -[(Bu)p]2 -(5'cta tcg gtt aga taa ac3'-3'a5') [spA4-antiRSV3'-3'A/(8530-8547)],inhibition of levels of M2 RNA,RSV M2 RNA,17%

# From patent US6214805A, “RNase L activators and antisense oligonucleotides effective to treat RSV infections” (priority 1997, dated 2001)
